Data set [1] relates to traction reflex (Tract.) impairment. The data set can be described thus: Traction reflex impairment (for therapeutic index). The format is in vivo. The settings on record: therapeutic index: ED50 for traction reflex impairment divided by ED50 for MES-induced convulsions. How it is done:
(§1) Effect of MRZ 2/705 on convulsions induced by maximal electroshock (MES). […] The therapeutic index (TI) was also calculated as the ED50 for inhibition of traction reflex (Tract.) impairment or rotarod failure (Rot.) divided by the ED50 for MES-induced seizure-induced convulsions.

The subject of data set [2] is cultured cortical neurones. The data set can be described thus: Glutamate toxicity in cultured cortical neurones. The format is cell-based. The following applies: Cortical neurone, read-out: Glut Tox IC50. As for the experimental part:
(§2) Effect of MRZ 2/705 on [^3H]-(+)-MK-801 binding, NMDA-induced currents in patch clamp experiments, and glutamate toxicity in cultured cortical neurones. […] IC50s (±SEM) in patch clamp and glutamate toxicity experiments were determined from data from at least 3 concentrations producing between 15 and 85% inhibition and at least 5 cells/well per concentration.

In a further data set the test system is amygdala kindled rats. The data set can be described thus: Amygdala kindling model in fully kindled rats. It is filed as in vivo, Female Wistar rats. How it is done:
The substance MRZ 2/705 was tested in the amygdala kindling model in rats. In this model chronically implanted animals with stimulation and recording electrodes in the amygdala were rendered more susceptible to seizures by repeated initially subconvulsive electrical stimulation (Goddard et al., 1969, Sato el. al, 1990). Once enhanced sensitivity, characterized by generalized motor seizures, has developed, the animal is said to be fully kindled. For substance screening procedures we determine the individual threshold current that induces afterdischarges at the stimulation site.
Female Wistar rats were purchased at a body weight of 200-220g (Harlan Windelmann Versuchstierzucht, Borchen, Germany) and were then kept under controlled environmental conditions (24-25°C, 50-60% humidity, 12h light / dark cycle) with free access to standard laboratory chow (Altromin 1324 standard diet) and tap water. All experiments were performed within the same day time in the morning to minimize possible effects of circadian variation. […] These animals were previously kindled and used to test other compounds. The period between the previous and current studies was long enough (at least one month) so that it was ample time for a complete washout from the previously tested drug.
For implantation of kindling electrodes, rats were anaesthetized with chloral hydrate (360 mg/kg, i/p.), the skull surface was exposed, and a bipolar electrode was implanted into the right hemisphere aimed at the basolateral amygdala using the following sterotaxic coordinates according to the atlas of Paximos and Watson (1986): 2.2 mm caudal, 4.8 mm lateral, 8.5 mm ventral (all respective to bregma). The electrodes consisted of two twisted Teflon-coated stainless steel wires (250 µm diameter) separated by 0.5 mm at the tip. A screw, which served as grounding electrode, was positioned over the left parietal cortex. Bipolar and ground electrodes were connected to plugs, and the electrode assembly and anchor screws were held in place with dental carylic cement applied to the exposed skull surface. After surgery, the rats were treated with antibiotics for 1 week to prevent infection.
Following a post-operative recovery period of two weeks, constant current stimulations (500µA, 1 msec, monophasic square-wave pulses, 50 Hz for 1 s) were delivered to the amygdala once daily (five times per week) until at least 10 sequential fully kindled stage-5 seizures were elicited. Seizure severity (SS) was scored according to Racine (1972): 1 immobility, eye closure, ear twitching, twitching of vibrissae, sniffing, facial clonus; 2 head nodding associated with more severe facial clonus; 3 clonus of one forelimb; 3.5 bilateral clonus without rearing; 4 bilateral clonus accompanied by rearing; 4.5 generalized clonic seizures without rearing and falling (e.g. because of direct loss of balance); 5 rearing and falling accompanied by generalized clonic seizures. In these fully kindled rats afterdischarge threshold (ADT) was determined by administering a series of stimulations at intervals of 1 min. increasing in steps of about 20% of the previously applied current. The afterdischarge threshold was defined as the lowest current intensity producing afterdischarge with a duration of at least 5 s.
In all experiments seizure duration and afterdischarge duration were recorded in addition to seizure severity and afterdischarge threshold. Seizure duration 1 (SD1) was the time period of limbic and/or motor seizures. Limbic seizure activity which sometimes occurred after termination of secondarily generalized seizures was not included in seizure duration. Seizure duration 2 (SD2) was the time period from stimulation until the end of postictal depression phase.
Afterdischarge duration 1 (ADD1) was defined as the period of high amplitude spiking (at least 1 Hz frequency and twice the prestimulation amplitude) in the electroencephalogram (EEG) of the BLA electrode, including the time of stimulation. […]

In another data set the test system is NMDA-induced currents. The data set is described as follows: NMDA-induced currents in patch clamp experiments. It is filed as cell-based. The settings on record: at least 3 concentrations, at least 5 cells per concentration. As for the experimental part: as §2
In general terms: In patch-clamp work, channel activity is measured electrically.

For another data set, the system named is rotarod failure (Rot.). The data set can be described thus: Rotarod failure (for therapeutic index). The format is in vivo. The following applies: therapeutic index: ED50 for rotarod failure divided by ED50 for MES-induced convulsions. As for the experimental part:
as §1
On the technique in general: Falling from the rotarod earlier than controls is read as motor impairment.

The next data set deals with [^3H]-(+)-MK-801 binding. The data set can be described thus: [3H]-(+)-MK-801 binding. The settings on record: read-out: MK-801 Ki; means of 3-5 experiments; Cheng-Prusoff, Kd for MK-801 of […]. How it is done:
as §2

Data set [3] concerns convulsions induced by maximal electroshock (MES). The data set is described as follows: Convulsions induced by maximal electroshock (MES). It is filed as in vivo. The following applies: ip; 95% confidence limits in the next column. How it is done: as §1
For orientation: In the maximal electroshock model the usual endpoint is tonic extension of the hind limbs.

Data set [4] in a line: Adverse effects in kindled rats (sedation, ataxia, rotarod test). The format is in vivo, Female Wistar rats. How it is done: The substance MRZ 2/705 was dissolved in distilled water and administered i.p. Thereby applicated volume was 3 ml/kg body weight. dosages used in the experiments were 5, 10, and 20 mg/kg.
Animals were allowed to adapt to the laboratory environment, then body temperature was measured and animals were put into open cages for constant observation. 15 and 30 minutes following drug or vehicle administration behavioral alterations and body temperature were determined. Adverse effects were scored during observation in open cages and in an open field. In addition, rats were subjected to the rotarod test (polypropylene, foam-coated rod, 5cm in diameter, 8rpm). Animals were considered to have failed this test, when they fell from the rod in each of three consecutive 1-min. attempts.

The mark [5] stands for this setting: 20 mg/kg i.p., in a significant manner.

As usually defined, the IC50 is the concentration that inhibits the measured activity by half. As usually defined, the Ki is a dissociation constant, usually derived from enzyme kinetics or from competition with a known ligand. The term ED50 denotes the dose that gives a 50% effect, or the effect in half of the subjects. Lower therefore signals greater potency. For `CC1(C)CC(C)(C)CC(C)(N2CCCC2)C1.Cl` [MRZ 2/705, N-(1,3,3,5,5-Pentamethylcyclohexyl) pyrrolidine hydrochloride], the “TI Tract” value in data set [1] worked out at 3.9. In addition, the values for the IC50 (in data set [2]; in the data set with NMDA-induced currents) were 12.3 µM and 25.4 µM, respectively. In addition, the “average increase in afterdischarge threshold above control threshold” value with amygdala kindled rats (5 mg/kg i.p.) stood at 36%; with amygdala kindled rats (10 mg/kg i.p., significant) it was 50%; in the data set with amygdala kindled rats (20 mg/kg i.p., significant) it was 95%. Further, the duration of afterdischarges entry in the data set with amygdala kindled rats (setting [5]) is listed as “reduced”. For the same molecule, the “duration of motor seizures” value in the data set with amygdala kindled rats (setting [5]) was “reduced”. The seizure severity result in the data set on amygdala kindled rats (setting [5]) was “reduced”. The “seizure parameters (seizure severity, duration of motor seizures, duration of afterdischarges)” value with amygdala kindled rats (lower dosages (5 and 10 mg/kg i.p.)) is “remained unchanged or were only influenced slightly”. Further, in the data set on rotarod failure (Rot.), the “TI Rot.” value is recorded as 5.4. For the same molecule, the “Min I.ct-hality” value in the data set “Minimal lethality i.p.” is reported as >50 mg/kg. Also, the Ki in data set [^3H]-(+)-MK-801 binding was found to be 7.14 µM. In addition, in data set [3], it took a dose of 9.55 mg/kg to reach the 50% effect level (ED50). In addition, the rotarod test result in data set [4] (5, 10, 20 mg/kg i.p., 8 rpm, three consecutive 1-min attempts) is “no failure to pass the rotarod test was observed”. Also, the ataxia entry in [4] (10 and 20 mg/kg i.p.) was “Slight ataxia”. Further, the sedation entry in data set [4] (all three dosages (5, 10, 20 mg/kg i.p.)) is reported as “minor signs of sedation”.

These data come from EP1228052B1, “1-CYCLIC AMINO-ALKYLCYCLOHEXANE COMPOUNDS, PHARMACEUTICAL COMPOSITIONS THEREOF, AND THEIR USE AS ANTICONVULSANTS” (Merz Pharma GmbH & Co. KGaA, priority 1999, dated 2001).
